Measurements taken from US6841519B1, “Isoxazoline derivatives and herbicides containing the same as the active ingredient” (Kumiai Chemical Industry Co., Ltd., priority 1999, dated 2005).

Tests used:
Type in all cases: in vivo
[1] = test system: Echinochloa crus-galli (L.) Beauv. var. crusgall (Ec); test: Test for herbicidal effect by upland field soil treatment (Test Example 2), Ec
Description: (§1) [table] <Test Example 2> Test For Herbicidal Effect By Upland Field Soil Treatment An upland field soil was filed in a plastic pot of 80 cm^2. Seeds of Echinochloa crus-galli (L.) Beauv. var. crusgall (Ec) and Setaria viridis (L.) Beauv. (Se) were sowed, followed by covering with the same soil. Wettable powders produced in accordance with the Formulation 1 were diluted with water and sprayed uniformly: on the soil surface using a small sprayer, in an amount of 100 liters per 10 ares so that the amount of each active ingredient became 100 g per 10 ares. Then, breeding was made in a greenhouse, and the herbicidal effect of each wettable powder was examined at the 21st day from the treatment in accordance with the standard shown in Table 40.

[2] = test system: Echinochloa oryzicola Vasing. (Eo); test: Test for herbicidal effect by paddy field soil treatment (Test Example 1); settings: application amount (active ingredient) 100 g/10 a, examined at the 21st day from the treatment, index per Table 40
Description: <Test Example 1> Test For Herbicidal Effect By Paddy Field Soil Treatment A paddy field soil was filled in a plastic pot of 100 cm^2 and subjected to puddling. Then, seeds of Echinochloa oryzicola Vasing. (Eo) were sowed and water was filled in a depth of 3 cm. Next day, wettable powders produced in accordance with the Formulation 1 were diluted with water and dropped on the water surface. The application amount of each wettable powder was 100 g per 10 ares in terms of the active ingredient. Then, breeding was made in a greenhouse, and the herbicidal effect of each wettable powder was examined at the 21st day from the treatment in accordance with the standard shown in Table 40. [table]

[3] = test system: Echinochloa crus-galli (L.) Beauv. var. crusgalli (Ec); test: Test for herbicidal effect by upland foliage treatment (Test Example 3); settings: 100 g/10 a active ingredient, examined at 14th day
Description: Test For Herbicidal Effect By Upland Foliage Treatment
An upland field soil was filed in a plastic pot of 80 cm^2. Seeds of Echinochloa crus-galli (L.) Beauv. var. crusgalli (Ec) were sowed. Breeding was made in a greenhouse for 2 weeks. Wettable powders produced in accordance with the Formulation 1 were diluted with water and sprayed on the whole foliage of plants from above the plants using a small sprayer in an amount of 100 liters per 10 ares so that the amount of each active ingredient became 100 g per 10 ares. Then, breeding was made in the greenhouse, and the herbicidal effect of each wettable powder was examined at the 14th day from the treatment in accordance with the standard shown in Table 40.

[4] = test system: Setaria viridis (L.) Beauv. (Se); test: Test for herbicidal effect by upland field soil treatment (Test Example 2), Se
Description: as §1

[5] = 100 g/10 a active ingredient, examined at 21st day
[6] = application amount (active ingredient) 100 g/10 a, examined at the 21st day from the treatment, index per Table 40

Structure (SMILES): CCOCc1ccccc1CS(=O)(=O)C1=NOC(C)(C)C1 [Compound 1-586]
- Herbicidal effect to Ec [1, 5]: 5 (A herbicidal effect or phytotoxicity of 90% or more)
- Herbicidal effect to Eo [2]: 5 (A herbicidal effect or phytotoxicity of 90% or more)
- Herbicidal effect to Ec [3]: 5 (A herbicidal effect or phytotoxicity of 90% or more)
- Herbicidal effect to Se [4, 5]: 5 (A herbicidal effect or phytotoxicity of 90% or more)

Structure (SMILES): CC(C)OC(=O)c1ccccc1CS(=O)(=O)C1=NOC(C)(C)C1 [Compound 1-595]
- Herbicidal effect to Ec [1, 5]: 5 (A herbicidal effect or phytotoxicity of 90% or more)
- Herbicidal effect to Eo [2]: 5 (A herbicidal effect or phytotoxicity of 90% or more)
- Herbicidal effect to Ec [3]: 4 (A herbicidal effect or phytotoxicity of 70% to less than 90%)
- Herbicidal effect to Se [4, 5]: 5 (A herbicidal effect or phytotoxicity of 90% or more)

Structure (SMILES): CCCOc1cccc(C)c1CS(=O)(=O)C1=NOC(C)(C)C1 [Compound 1-603]
- Herbicidal effect to Ec [1, 5]: 5 (A herbicidal effect or phytotoxicity of 90% or more)
- Herbicidal effect to Eo [2]: 5 (A herbicidal effect or phytotoxicity of 90% or more)
- Herbicidal effect to Ec [3]: 4 (A herbicidal effect or phytotoxicity of 70% to less than 90%)
- Herbicidal effect to Se [4, 5]: 5 (A herbicidal effect or phytotoxicity of 90% or more)

Structure (SMILES): CCOc1c(C)cccc1CS(=O)(=O)C1=NOC(C)(C)C1 [Compound 1-186]
- Herbicidal effect to Ec [1, 6]: 5 (A herbicidal effect or phytotoxicity of 90% or more)
- Herbicidal effect to Eo [2]: 5 (A herbicidal effect or phytotoxicity of 90% or more)
- Herbicidal effect to Ec [3]: 5 (A herbicidal effect or phytotoxicity of 90% or more)
- Herbicidal effect to Se [4, 6]: 5 (A herbicidal effect or phytotoxicity of 90% or more)

Structure (SMILES): CC1(C)CC(S(=O)(=O)Cc2cc(C(F)(F)F)ccc2F)=NO1 [Compound 1-514]
- Herbicidal effect to Ec [1, 5]: 5 (A herbicidal effect or phytotoxicity of 90% or more)
- Herbicidal effect to Eo [2]: 5 (A herbicidal effect or phytotoxicity of 90% or more)
- Herbicidal effect to Ec [3]: 5 (A herbicidal effect or phytotoxicity of 90% or more)
- Herbicidal effect to Se [4, 5]: 5 (A herbicidal effect or phytotoxicity of 90% or more)

Structure (SMILES): CC1(C)CC(S(=O)(=O)Cc2cc(F)cc(F)c2F)=NO1 [Compound 1-508]
- Herbicidal effect to Ec [1, 5]: 5 (A herbicidal effect or phytotoxicity of 90% or more)
- Herbicidal effect to Eo [2]: 5 (A herbicidal effect or phytotoxicity of 90% or more)
- Herbicidal effect to Ec [3]: 4 (A herbicidal effect or phytotoxicity of 70% to less than 90%)
- Herbicidal effect to Se [4, 5]: 5 (A herbicidal effect or phytotoxicity of 90% or more)

Structure (SMILES): CC1(C)CC(S(=O)(=O)Cc2cc(F)cc(C(F)(F)F)c2)=NO1 [Compound 1-542]
- Herbicidal effect to Ec [1, 5]: 5 (A herbicidal effect or phytotoxicity of 90% or more)
- Herbicidal effect to Eo [2]: 5 (A herbicidal effect or phytotoxicity of 90% or more)
- Herbicidal effect to Ec [3]: 4 (A herbicidal effect or phytotoxicity of 70% to less than 90%)
- Herbicidal effect to Se [4, 5]: 5 (A herbicidal effect or phytotoxicity of 90% or more)

Structure (SMILES): Cc1cccc(Cl)c1CS(=O)(=O)C1=NOC(C)(C)C1 [Compound 1-560]
- Herbicidal effect to Ec [1, 5]: 5 (A herbicidal effect or phytotoxicity of 90% or more)
- Herbicidal effect to Eo [2]: 5 (A herbicidal effect or phytotoxicity of 90% or more)
- Herbicidal effect to Ec [3]: 4 (A herbicidal effect or phytotoxicity of 70% to less than 90%)
- Herbicidal effect to Se [4, 5]: 5 (A herbicidal effect or phytotoxicity of 90% or more)

Structure (SMILES): CCC1(C)CC(S(=O)(=O)Cc2ccccc2C(F)(F)F)=NO1 (stereo not drawn) [Compound 1-336]
- Herbicidal effect to Ec [1, 6]: 5 (A herbicidal effect or phytotoxicity of 90% or more)
- Herbicidal effect to Eo [2]: 5 (A herbicidal effect or phytotoxicity of 90% or more)
- Herbicidal effect to Ec [3]: 5 (A herbicidal effect or phytotoxicity of 90% or more)
- Herbicidal effect to Se [4, 6]: 5 (A herbicidal effect or phytotoxicity of 90% or more)

Structure (SMILES): Cc1cccc(OC(C)C)c1CS(=O)(=O)C1=NOC(C)(C)C1 [Compound 1-604]
- Herbicidal effect to Ec [1, 5]: 5 (A herbicidal effect or phytotoxicity of 90% or more)
- Herbicidal effect to Eo [2]: 5 (A herbicidal effect or phytotoxicity of 90% or more)
- Herbicidal effect to Ec [3]: 5 (A herbicidal effect or phytotoxicity of 90% or more)
- Herbicidal effect to Se [4, 5]: 5 (A herbicidal effect or phytotoxicity of 90% or more)

Structure (SMILES): CC1(C)CC(S(=O)(=O)Cc2ccccc2OCC2CC2)=NO1 [Compound 1-608]
- Herbicidal effect to Ec [1, 5]: 5 (A herbicidal effect or phytotoxicity of 90% or more)
- Herbicidal effect to Eo [2]: 5 (A herbicidal effect or phytotoxicity of 90% or more)
- Herbicidal effect to Ec [3]: 5 (A herbicidal effect or phytotoxicity of 90% or more)
- Herbicidal effect to Se [4, 5]: 5 (A herbicidal effect or phytotoxicity of 90% or more)

Structure (SMILES): CCC1(C)CC(S(=O)(=O)Cc2ccccc2C)=NO1 (stereo not drawn) [Compound 1-201]
- Herbicidal effect to Ec [1, 6]: 5 (A herbicidal effect or phytotoxicity of 90% or more)
- Herbicidal effect to Eo [2]: 5 (A herbicidal effect or phytotoxicity of 90% or more)
- Herbicidal effect to Ec [3]: 5 (A herbicidal effect or phytotoxicity of 90% or more)
- Herbicidal effect to Se [4, 6]: 5 (A herbicidal effect or phytotoxicity of 90% or more)

Structure (SMILES): CCc1cccc(CC)c1CS(=O)(=O)C1=NOC(C)(C)C1 [Compound 1-502]
- Herbicidal effect to Ec [1, 5]: 5 (A herbicidal effect or phytotoxicity of 90% or more)
- Herbicidal effect to Eo [2]: 5 (A herbicidal effect or phytotoxicity of 90% or more)
- Herbicidal effect to Ec [3]: 5 (A herbicidal effect or phytotoxicity of 90% or more)
- Herbicidal effect to Se [4, 5]: 5 (A herbicidal effect or phytotoxicity of 90% or more)

Structure (SMILES): CC1(C)CC(S(=O)(=O)Cc2c(F)cccc2Cl)=NO1 [Compound 1-494]
- Herbicidal effect to Ec [1, 6]: 5 (A herbicidal effect or phytotoxicity of 90% or more)
- Herbicidal effect to Eo [2]: 5 (A herbicidal effect or phytotoxicity of 90% or more)
- Herbicidal effect to Ec [3]: 5 (A herbicidal effect or phytotoxicity of 90% or more)
- Herbicidal effect to Se [4, 6]: 5 (A herbicidal effect or phytotoxicity of 90% or more)

Structure (SMILES): CCC1(C)CC(S(=O)(=O)Cc2cccc(Cl)c2)=NO1 (stereo not drawn) [Compound 1-193]
- Herbicidal effect to Ec [1, 6]: 5 (A herbicidal effect or phytotoxicity of 90% or more)
- Herbicidal effect to Eo [2]: 5 (A herbicidal effect or phytotoxicity of 90% or more)
- Herbicidal effect to Ec [3]: 5 (A herbicidal effect or phytotoxicity of 90% or more)
- Herbicidal effect to Se [4, 6]: 4 (A herbicidal effect or phytotoxicity of 70% to less than 90%)

Structure (SMILES): CC1(C)CC(S(=O)(=O)Cc2ccccc2I)=NO1 [Compound 1-521]
- Herbicidal effect to Ec [1, 5]: 5 (A herbicidal effect or phytotoxicity of 90% or more)
- Herbicidal effect to Eo [2]: 5 (A herbicidal effect or phytotoxicity of 90% or more)
- Herbicidal effect to Ec [3]: 5 (A herbicidal effect or phytotoxicity of 90% or more)
- Herbicidal effect to Se [4, 5]: 5 (A herbicidal effect or phytotoxicity of 90% or more)

Structure (SMILES): CC(c1ccccc1)S(=O)(=O)C1=NOC(C)(C)C1 (stereo not drawn) [Compound 1-581]
- Herbicidal effect to Ec [1, 5]: 5 (A herbicidal effect or phytotoxicity of 90% or more)
- Herbicidal effect to Eo [2]: 5 (A herbicidal effect or phytotoxicity of 90% or more)
- Herbicidal effect to Ec [3]: 4 (A herbicidal effect or phytotoxicity of 70% to less than 90%)
- Herbicidal effect to Se [4, 5]: 5 (A herbicidal effect or phytotoxicity of 90% or more)

Structure (SMILES): C=CCOc1ccccc1CS(=O)(=O)C1=NOC(C)(C)C1 [Compound 1-589]
- Herbicidal effect to Ec [1, 5]: 5 (A herbicidal effect or phytotoxicity of 90% or more)
- Herbicidal effect to Eo [2]: 5 (A herbicidal effect or phytotoxicity of 90% or more)
- Herbicidal effect to Ec [3]: 4 (A herbicidal effect or phytotoxicity of 70% to less than 90%)
- Herbicidal effect to Se [4, 5]: 5 (A herbicidal effect or phytotoxicity of 90% or more)

Structure (SMILES): CCCCOc1ccccc1CS(=O)(=O)C1=NOC(C)(C)C1 [Compound 1-568]
- Herbicidal effect to Ec [1, 5]: 5 (A herbicidal effect or phytotoxicity of 90% or more)
- Herbicidal effect to Eo [2]: 5 (A herbicidal effect or phytotoxicity of 90% or more)
- Herbicidal effect to Ec [3]: 5 (A herbicidal effect or phytotoxicity of 90% or more)
- Herbicidal effect to Se [4, 5]: 5 (A herbicidal effect or phytotoxicity of 90% or more)

Structure (SMILES): CC1(C)CC(S(=O)(=O)Cc2ccccc2C#N)=NO1 [Compound 1-139]
- Herbicidal effect to Ec [1, 6]: 5 (A herbicidal effect or phytotoxicity of 90% or more)
- Herbicidal effect to Eo [2]: 5 (A herbicidal effect or phytotoxicity of 90% or more)
- Herbicidal effect to Ec [3]: 4 (A herbicidal effect or phytotoxicity of 70% to less than 90%)
- Herbicidal effect to Se [4, 6]: 5 (A herbicidal effect or phytotoxicity of 90% or more)

Structure (SMILES): C#CCOc1cccc(C)c1CS(=O)(=O)C1=NOC(C)(C)C1 [Compound 1-607]
- Herbicidal effect to Ec [1, 5]: 5 (A herbicidal effect or phytotoxicity of 90% or more)
- Herbicidal effect to Eo [2]: 5 (A herbicidal effect or phytotoxicity of 90% or more)
- Herbicidal effect to Ec [3]: 5 (A herbicidal effect or phytotoxicity of 90% or more)
- Herbicidal effect to Se [4, 5]: 5 (A herbicidal effect or phytotoxicity of 90% or more)
